Results published in publication PMC5855688, “BC-Box Motif-Mediated Neuronal Differentiation of Somatic Stem Cells” (International Journal of Molecular Sciences, 2018).

System: skin-derived precursors (SKPs)
Experiment: Neurite outgrowth / morphological evaluation of neuronal differentiation
Assay type: cell-based, rat (neonate Wistar)
Details: delivered with TAT PTD, 1 to 5 μM
Method: Rodent skin-derived precursor cells (SKPs), which can differentiate to neurons, were used. SKPs were previously isolated from the back dermis of neonate Wistar rats by the authors. These cells were cultured in growth medium composed of DMEM/F12 (1:1; Gibco, Grand Island, NY, USA) containing 2% B27 supplement (Gibco), 20 ng/mL epidermal growth factor (EGF; Upstate Biotechnology, Lake Placid, NY, USA), and 40 ng/mL bFGF (PeproTech EC Ltd., Rocky Hill, NJ, USA) in a humidified incubator at 37 °C with 5% CO2. The floating clusters of cultured cells were centrifuged and dissociated into a single-cell suspension by use of a Pasteur pipette with a flame-polished tip. These single cells were then re-suspended into at a concentration of 50,000 cells/mL for passage or experiments. […]
Neurite outgrowth with length exceeding the diameter of the neuronal soma is often assessed as a morphological index of neuronal differentiation. […] Thereafter, neurite outgrowth was evaluated with the following 4 levels: +++, for above 50% of the cells showing neurite outgrowth; ++, for 20–50% with neurite outgrowth; +, for 5–19% having neurite outgrowth; and −, for below 5% of the cells with neurite outgrowth.

Sequence	Neurite Outgrowth Activity (BC-box motif plus five C-terminal amino acids peptides)	Neurite Outgrowth Activity (BC-box motif alone (10-residue) peptides)
YARAAARQARASLTHLCRLEIRSSIK [ASB3 BC-box motif plus five amino acids]	++ (20–50% with neurite outgrowth)	–
YARAAARQARASLTHLCRLEI [ASB3 BC-box motif alone]	–	- (below 5% of the cells with neurite outgrowth)
